Results as given in patent US20130165635A1 (priority 2010, published 2013).
Numbered stars: 1 amine (or outer) side, 2 acyl side, 3 side chain; on linkers, the order of the positions; unused ones are H or OH. Bridge positions count the residues as written; N and C are the ends. Square brackets hold non-standard residues; d marks the D form. Peptide text beside a SMILES is read from it. X1 = CC(C)CCCCCCCCC[C@H](CC(=O)[*:1])O[*:2]

Columns and labels:
Assay type in all cases: cell-based
Magnaporthe grisea = settings: 1.56 to 12.56 μg/mL, 100 μL in cup, 25° C. for 1 to 3 days
Fusarium oxysporum = test system: Fusarium oxysporum
[1] = test system: Trichophyton mentagrophytes

Row | Compound | antifungal activity (growth inhibition of test microorganism) (Magnaporthe grisea) | antifungal activity (growth inhibition of test microorganism) (Fusarium oxysporum) | antifungal activity (growth inhibition of test microorganism) [1]
1 | CC(C)CCCCCCCCC[C@@H]1CC(=O)N[C@@H](CCC(=O)O)C(=O)N[C@@H](CC(C)C)C(=O)N[C@H](CC(C)C)C(=O)N[C@@H](C(C)C)C(=O)N[C@@H](CC(=O)O)C(=O)N[C@H](CC(C)C)C(=O)N[C@@H](CC(C)C)C(=O)O1 [surfactin] (EL[dL]VD[dL]L; linker N-C via X1) | weaker than iturin A, but slight inhibitory activities | did not show antifungal activity | –
2 | iturin A | strong antifungal activities | strong antifungal activity | strong antifungal activities
